According to patent US20140106387A1, “METHOD FOR CONTROLLING NAD(P)/NAD(P)H RATIO BY OXIDOREDUCTASE” (MD BIOALPHA CO., LTD., priority 2006, published 2014):

Legend:
[1] = tested on: mRNAs in liver, adipose and muscle tissues; assay: real-time quantitative PCR / microarray of gene expression in tissues of DIO mice; format: in vivo, mouse
Protocol: Animals were continuously fed high-fat diet pellets for 3 to 4 weeks, thereby establishing DIO mice. Mice were raised in a breeding room with a 12 h/12 h light/dark D) cycle. Animals were divided into three groups, i.e., a group with administration of physiological saline (n=3), a group with administration of a vehicle (n=5) and a group with administration of 50 mg/kg of a candidate compound (n=7). Samples were orally administered to animals every day. On Days 7, 28 and 56, each tissue was removed, frozen in liquid nitrogen, and stored at […] for short and long periods of time.
On Days 7, 28 and 56, liver, adipose and muscle tissues were isolated from two groups of diet-induced DIO mice and total RNAs were extracted using Trizol. cDNAs were synthesized using 1 μg of total RNAs, and polymerase used for PCR was prepared using M-MLV polymerase according to a method instructed by the manufacturer. Real-time quantitative PCR was carried out using the prepared cDNAs.
A cDNA microarray analysis was carried out using an affymetrix mouse genome 430A 2.0 array chip. Using trizol, about 13 μg of total RNA was extracted in a concentration of more than 1 μg/1 μl from liver, adipose and muscle tissues of DIO mice on Days 7, 28 and 56, followed by a microarray analysis. Functional classification was made using NetAffx which is available from the Affymetrix website.
Adipose, liver or muscle tissues were pooled from male mice treated with a vehicle or a candidate compound for 4 weeks and the pooled tissues were subjected to microarray analysis. Total RNA was prepared from the tissues homogenized with a Trizol reagent (Invitrogen, Carlsbad, Calif.). Probes for the microarray analysis were prepared from 10 μg of the total RNA, and hybridized to Mouse 430A GeneChips (Affymetrix, Santa Clara, Calif.). The hybridized array was scanned, and raw data was extracted using Microarray Analysis Suite 5.0 (Affymetrix). For PCR quantitation, 1 μg of total RNA was reversely transcribed into cDNA using Superscript II and oligo(dT) primers. The constructed cDNA was amplified with the LightCycler FastStart DNA Master SYBR Green I kit and LightCycler, according to the manufacturer's instruction (Roche Diagnostics, Indianapolis, Ind.). Expression data were normalized to β-actin expression.
In order to investigate anti-obesity effects of an NQO1 activator, the NQO1 activator was administered daily to DIO mice at a dose of 50 mg/kg via an oral route, and an attempt was made to confirm levels of mRNAs of acetyl CoA carboxylase (ACC) 1, ACC2, fatty acid synthase (FAS), lipoprotein lipase (LPL), and stearoyl-CoA desaturase 1 (SCD1), which participate in lipid metabolism in the hepatic and gonadal adipose tissues, by real-time quantitative PCR. These enzymes are very important for lipid metabolism; it is known that ACC catalyzes formation of malonyl CoA from acetyl CoA, FAS catalyzes formation of palmitate from malonyl CoA, and SCD1 catalyzes formation of monounsaturated fat, thus playing a critical role in formation of triacylglycerol, a major energy store. Therefore, these enzymes are closely correlated with obesity, diabetes, and lipid metabolism-related diseases. […] Therefore, from the results of such increased or decreased expression of genes for the above-mentioned enzymes, it can be inferred that NQO1 will be feasible as a therapeutic target for the treatment of metabolic diseases.
In order to investigate effects of βL on the expression of genes involved in glucose and fat metabolism in liver, skeletal muscle and white adipose tissue (WAT), experiments were caned out using gene expression microarray analysis and mouse A42 Affymetrix GeneChip.

AMPKα, ACC = assay: AMPKα and ACC phosphorylation in tissues of DIO mice (Western blot); format: in vivo, mouse
Protocol: HepG2 (human hepatoma cell line), HEK293 (Human embryonic kidney cell line), and C2C12/L6 myoblasts were purchased from American Type Culture Collection (ATCC, Manassas, Va., USA). LKB−/− MEFs were purchased from R.A. DePinho. Rat ventricular myocytes were enzymatically isolated from the heart of adult […] by a known method. Phosphorylation of AMPK (Thr172) and ACC (Ser79) was measured by Western blot analysis using Cell Signaling Technologies and pan- and phospho-specific antibodies (Upstate Biotechnology, Inc., Lake Placid, N.Y.).
Using various proteins extracted from liver, gonadal fat (WAT), EDL and soleus muscle of DIO mice treated with a vehicle or βL for 2 days, T172 phosphorylation of AMPKα and S79 phosphorylation of ACC in each tissue were measured by Western blot analysis.
FIG. 26 is a photograph showing effects of an NQO1 activator on AMPK & ACC phosphorylation in C57BL/6 mice. In order to investigate anti-obesity effects of an NQO1 activator, the NQO1 activator was administered daily to DIO mice at a dose of 50 mg/kg via an oral route, and effects of the NQO1 activator on phosphorylation of AMPK and ACC, which play an important role in energy metabolism and lipogenesis in the liver and gonadal adipose tissues, were examined. […] Phosphorylated AMPK is believed to activate metabolism associated with energy. Whereas, it is believed that ACC, which is affected by activation of AMPK, is phosphorylated and lipogenic activity thereof is then inhibited, which will then exert some effects on lipid metabolism including inhibition of obesity.

AMPK, ACC = assay: AMPK kinase / ACC activity in HepG2 cells; format: cell-based, human
HepG2 cells = assay: mitochondrial oxygen consumption (Clark-type oxygen electrode) in HepG2 cells; format: cell-based, human
Excerpt: FIG. 22 is a graph showing monitoring results of mitochondrial oxygen consumption using a Clark-type oxygen electrode;

[2] = DIO mice, 50 mg/kg daily oral, liver and gonadal adipose tissues
[3] = gonadal adipose tissues, Days 7, 28 and 56, 50 mg/kg daily oral

With `CC1(C)CCC2=C(O1)c1ccccc1C(=O)C2=O` [βL, 2,2-Dimethyl-3,4-dihydro-2H-benzo[h]chromene-5,6-dione] the “LPL mRNA level increase compared to control” value ([1]; DIO mice, 50 mg/kg daily oral) was “approximately 2 fold”, the “increase in mRNA levels of PPAR gamma” value ([1]; DIO mice, 50 mg/kg daily oral) was “two-fold” and the “mRNA of PPAR alpha” value ([1]; DIO mice, 50 mg/kg daily oral) was “not changed”. The “mRNAs of AOX, AMPK alpha 1, AMPK alpha 2 and carnitine palmitoyltransferase 1” value ([1]; DIO mice, 50 mg/kg daily oral) was “increased levels”, the “expression levels of mRNAs of ACC1 and ACC2, FAS, LPL, and SCD1” value ([1]; DIO mice, 50 mg/kg daily oral, hepatic and gonadal adipose tissues) was “remarkably decreased” and the “HK2 mRNA level” value [1, 2] was “decreased”. The “mRNA levels of UCP1 & 2” value [1, 2] was “significant increases”, the “mRNAs of GLUT2 and GLUT4” value [1, 2] was “significant increases” and the “mRNAs of PGC1α, NRF1, mtTFA, COX4 and COX7” value [1, 2] was “increased levels of mRNAs for all enzymes”. The “expression of LPL, ATGL, PPARα, SIRT1, Glut2 and Glut4” value ([1]; adipose tissues, vs vehicle-treated mice) was “higher”, the “transcripts of SIRT1, SIRT3 and SIRT6” value [1, 3] was “significantly increased” and the “transcripts of SIRT2, SIRT5 and SIRT7” value [1, 3] was “did not exhibit any noticeable difference”. For the same compound, the “expression of PGC-1α and NRF-1” value ([1]; liver and muscle, βL-treated vs vehicle-treated mice) was “significantly induced”, the “expression of COX4, COX7, AOX, UCP2 and UCP3” value ([1]; muscle) was “strongly upregulated” and the “expression of GLUT 2 and GLUT 4” value ([1]; muscle) was “induced”. For the same compound, the “expression of Sirt1 and Sirt3” value ([1]; muscle and WAT) was “induced”, the “phosphorylation of AMPK and ACC in the gonadal and liver tissues” value (AMPKα, ACC; C57BL/6 DIO mice, 50 mg/kg daily, oral) was “has an effect on phosphorylation of AMPK and ACC” and the “S79 phosphorylation of ACC and T172 phosphorylation of AMPKα” value (AMPKα, ACC; gonadal fat of DIO mice treated for 2 days) was “no such effects”. For the same compound, the “S79 phosphorylation of ACC and T172 phosphorylation of AMPKα” value (AMPKα, ACC; liver and muscle (EDL, Soleus) of DIO mice treated for 2 days) was “increased”, the ACC activation (AMPK, ACC) was “decreases ACC activation” and the “activity of AMPK” value (AMPK, ACC; 10 μM, 30 min) was “increased”. For the same compound, the mitochondrial oxygen consumption (HepG2 cells) was “increased”.
